≈ marks a conversion by molar mass, not a printed value. Like-named read-outs stand apart in the source and are kept apart here.
Key:
[1] = target: T1, CRM1 (Homo sapiens, UniProt O14980); assay: Rev-GFP nuclear export assay; assay type: cell-based; conditions: U2OS cells expressing Rev-GFP, 1 hour incubation, nuclear retention of Rev-GFP
T1 construct: The nuclear localization of Rev protein depends on CRM1; endogenous in cells; host or cells: U2OS cells stably or transiently expressing Rev-GFP (reporter cargo)
T1 sequence (O14980 whole entry): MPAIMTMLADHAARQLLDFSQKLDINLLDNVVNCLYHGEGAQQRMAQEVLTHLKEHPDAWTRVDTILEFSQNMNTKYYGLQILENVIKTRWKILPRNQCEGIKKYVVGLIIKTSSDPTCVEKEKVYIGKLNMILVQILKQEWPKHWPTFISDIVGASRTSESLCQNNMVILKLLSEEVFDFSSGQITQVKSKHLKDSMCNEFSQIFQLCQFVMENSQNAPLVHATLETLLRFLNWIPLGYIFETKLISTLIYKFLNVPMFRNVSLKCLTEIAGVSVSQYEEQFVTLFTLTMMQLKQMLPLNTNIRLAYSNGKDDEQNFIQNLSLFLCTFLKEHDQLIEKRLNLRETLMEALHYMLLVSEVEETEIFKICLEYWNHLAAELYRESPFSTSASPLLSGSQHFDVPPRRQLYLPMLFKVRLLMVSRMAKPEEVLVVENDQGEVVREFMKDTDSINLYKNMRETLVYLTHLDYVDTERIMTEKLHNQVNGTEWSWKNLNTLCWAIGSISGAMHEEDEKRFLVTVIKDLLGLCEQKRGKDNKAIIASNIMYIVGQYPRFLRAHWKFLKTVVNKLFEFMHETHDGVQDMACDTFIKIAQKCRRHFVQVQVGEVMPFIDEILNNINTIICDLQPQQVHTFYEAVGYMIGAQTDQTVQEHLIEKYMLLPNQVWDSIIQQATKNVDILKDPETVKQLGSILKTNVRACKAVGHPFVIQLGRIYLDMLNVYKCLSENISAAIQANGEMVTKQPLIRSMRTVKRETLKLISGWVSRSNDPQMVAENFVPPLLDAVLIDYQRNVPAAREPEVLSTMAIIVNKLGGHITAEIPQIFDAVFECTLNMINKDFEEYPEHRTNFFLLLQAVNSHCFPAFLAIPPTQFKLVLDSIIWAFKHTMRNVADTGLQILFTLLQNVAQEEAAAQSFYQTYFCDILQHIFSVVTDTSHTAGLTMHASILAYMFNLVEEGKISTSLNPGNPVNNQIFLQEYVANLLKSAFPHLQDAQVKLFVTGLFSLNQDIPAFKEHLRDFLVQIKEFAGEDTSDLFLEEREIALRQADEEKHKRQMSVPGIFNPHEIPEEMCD
Protocol: The Rev protein from HIV contains nuclear export sequence (NES) at its C terminus and nuclear localization sequence (NLS) at its N-terminus. The nuclear localization of Rev protein depends on CRM1. U2OS cells expressing Rev protein fused with GFP (Rev-GFP) were plated in black 384 plates with clear bottom one day prior to treatment. Compounds were serially diluted 2-fold from 40 μM with DMEM in 384 plates, and then incubated with U2OS cells for an hour. Cells were fixed with 3.7% formaldehyde afterwards and nuclei were stained with Hoechst33258. The nuclear retention of Rev-GFP was examined, and IC50 was calculated.

[2] = test system: BxPC-3 cells (pancreatic cancer); assay: Cancer cell proliferation assay, BxPC-3; assay type: cell-based; conditions: for IC50: Homo sapiens
Protocol: (§1) BxPC-3 cells (pancreatic cancer) and MDA-MB-231 cells (breast cancer cells) were harvested from exponential phase cultures and seeded in 96-well plates at a cell density of 2×10^4 per well. After overnight attachment, compounds including positive controls were applied to cells at five concentrations and incubated for three days. During the last four hours of incubation, 20 μL of 5 mg/mL […] was added followed by the further addition of 100 μL DMSO. The plates were subsequently shook for 10 minutes to dissolve insoluble purple formazan. Absorbance (A) at a wavelength of 570 nm was quantified. Percentage of inhibition was used for the calculation of IC50 based on the bliss method.

[3] = test system: MDA-MB-231 cells (breast cancer cells); assay: Cancer cell proliferation assay, MDA-MB-231; assay type: cell-based; conditions: Homo sapiens
Protocol: as §1

[4] = Aqueous solubility assay; assay type: physicochemical; conditions: thermodynamic from solid, HPLC
Protocol: 10-30 mg of compounds were dissolved in water and an HCl solution at pH1.2 respectively, and then were continuously shook for three days, followed by centrifugation at 10000 rpm/minute for five minutes. A 2 mL aliquot of supernatant was removed and diluted to 50 mL to prepare a sample solution. A control solution was prepared by dissolving 2.5 mg compounds in methanol, which was subsequently diluted with water to a final volume of 50 mL. 20 μL of control and sample solutions were injected into HPLC. The area under the curve (A) of the sample solution was compared with that of the control solution and used for determination of the concentration. Solubility was calculated by the formula below. Solubility (mg/mL)=c(control)*25*A(sample)/A(control) • C (control): concentration of the control solution • A (sample): area under the curve of the sample solution • A (control): area under the curve of the control solution

[5] = In vivo pharmacokinetic analysis; conditions: ICR, mouse; mice, 5 mg/kg, oral gavage in 0.5% CMC, plasma
Protocol: A group of 9 ICR mice received 5 mg/kg of compound in 0.5% CMC by oral gavage. Blood was taken before treatment and at 5 min, 30 min, 1, 2, 4, 8, 12 and 24 h after treatment. 80 μL of whole blood was sampled (n=3 at each time point) via retro-orbital bleeds or cardiac puncture. The blood sample was collected into EDTA tubes and plasma were obtained by centrifugation at 1500-1600 rpm for 10 min at 4° C. After centrifugation, plasma sample was transferred to a new tube and stored at −60 to −90° C. for future analysis. Plasma concentration of (compounds was quantified by a method based on liquid chromatography coupled to tandem mass-spectrometric detections (LC/MS/MS). Noncompartmental pharmacokinetics parameters were calculated.

[6] = test system: BxPC-3 xenografts; assay: Anti-tumor growth efficacy in pancreatic tumor BxPC3 nude mice xenograft model; assay type: in vivo; conditions: oral: KPT-330 and 38 10 mg/kg tiw, 79 2.5 mg/kg tiw, 62 10 mg/kg qd; for Tumor volume D1 / average body weight D1: D1, first day of drug treatment; for T/C: TRTV/CRTV X 100
Protocol: BxPC-3 cells were cultured in 1640 medium containing 10% FBS at 37° C. and 5% CO2, 8×10^6 BxPc-3 cells were implanted subcutaneously into the left armpit of 40 nude mice. […] Compound 62 was administered orally everyday (qd) at 10 mg/kg, whereas KPT330 and compound 38 were given three times a week (tiw, Monday, Wednesday and Friday) at 10 mg/kg by oral gavage, and compound 79 were given three times a week (tiw, Monday, Wednesday and Friday) at 2.5 mg/kg by oral gavage. Tumor volume and body weight were measured every other day. Mice were sacrificed on day 21, and tumor and terminal body weight were recorded. The relative tumor volume, percent treatment/control values and tumor growth inhibition were calculated and statistics was performed.

[7] = BXPC-3, 72 h, three days incubation, absorbance 570 nm, read-out: IC50 (μM) BxPC-3
[8] = MDA-MB-231, 72 h, three days incubation, absorbance 570 nm, read-out: IC50 (μM) MDA-MB-231
[9] = simulated gastric fluid, HCl solution of pH 1.2, shaken three days, read-out: Solubility, HCl solution of pH 1.2
[10] = water, shaken three days, read-out: Solubility, Water
[11] = BXPC-3, anti-proliferative assay, read-out: IC50 in BxPC-3 cells
[12] = MDA-MB-231, anti-proliferative assay, read-out: IC50 in MDA-MB-231 cells

Compound	IC50 [1] [nM]	IC50 [2, 7] [µM]	IC50 [3, 8] [µM]	solubility at 3 days [4, 9] [µg/mL]	solubility at 3 days [4, 10] [µg/mL]	AUC(0-t) [5] [ng·h/mL]	Cmax [5] [ng/mL]	MRT [5] [h]	Tmax [5] [h]	half-life [5] [h]	Tumor volume D1 [6] [mm^3]	average body weight D1 [6] [g]	TGI (tumor growth inhibition) ([6]; D21) [%]	Tumor volume D21 ([6]; D21) [mm^3]	average body weight D21 ([6]; D21) [g]	RTV (relative tumor volume, Vt/V0) ([6]; D21, *P < 0.05 vs. vehicle group)	T/C [6] [%]	IC50 [2, 11] [µM]	folds of enhancement of activity in the anti-proliferative assay ([2]; in comparison to KPT330, BxPC-3 and MDA-MB-231 cells) [folds]	IC50 [3, 12] [µM]
O=C(/C=C\n1cnc(-c2cc(C(F)(F)F)cc(C(F)(F)F)c2)n1)NN1CCCC1=O [Compound 2, (Z)-3-(3-(3,5-bis(trifluoromethyl)phenyl)-1H-1,2,4-triazol-1-yl)-N-(2-oxopyrrolidin-1-yl)acrylamide]	< 1000	0.269	0.024	14.6 (≈ 33.6 µM)	11.3 (≈ 26.1 µM)	2660	502	6.59	0.5	4.58	–	–	–	–	–	–	–	–	–	–
CC1=C(C)C(=O)N(NC(=O)/C=C\n2cnc(-c3cc(C(F)(F)F)cc(C(F)(F)F)c3)n2)C1 [Compound 5, (Z)-3-(3-(3,5-bis(trifluoromethyl)phenyl)-1H-1,2,4-triazol-1-yl)-N-(3,4-dimethyl-2-oxo-2,5-dihydro-1H-pyrrol-1-yl)acrylamide]	< 1000	0.202	0.955	–	–	3690	674	4.34	1	4.53	–	–	–	–	–	–	–	–	–	–
CN1CCC2(CC1)CC(=O)N(NC(=O)/C=C\n1cnc(-c3cc(C(F)(F)F)cc(C(F)(F)F)c3)n1)C2 [Compound 23, (Z)-3-(3-(3,5-bis(trifluoromethyl)phenyl)-1H-1,2,4-triazol-1-yl)-N-(8-methyl-3-oxo-2,8-diazaspiro[4.5]decan-2-yl)acrylamide]	< 1000	0.664	0.407	159 (≈ 307 µM)	40.3 (≈ 78.1 µM)	–	–	–	–	–	–	–	–	–	–	–	–	–	–	–
O=C(/C=C\n1cnc(-c2cc(C(F)(F)F)cc(C(F)(F)F)c2)n1)NN1C(=O)[C@@H]2CC[C@H]1C2 [Compound 33, (Z)-3-(3-(3,5-bis(trifluoromethyl)phenyl)-1H-1,2,4-triazol-1-yl)-N-((1S,4R)-3-oxo-2-azabicyclo[2.2.1]heptan-2-yl)acrylamide]	< 1000	0.156	0.165	–	–	5770	697	6.76	1	4.36	–	–	–	–	–	–	–	–	–	–
CN1C(=O)CCN1C(=O)/C=C\n1cnc(-c2cc(C(F)(F)F)cc(C(F)(F)F)c2)n1 [Compound 62, (Z)-1-(3-(3-(3,5-bis(trifluoromethyl)phenyl)-1H-1,2,4-triazol-1-yl)acryloyl)-2-methylpyrazolidin-3-one]	< 1000	0.124	0.186	220 (≈ 508 µM)	320 (≈ 738 µM)	–	–	–	–	–	65.32 ± 6.61	20.55	77.35	152.32 ± 24.78	21.08	2.33*	35.10	–	–	–
COCCN1C(=O)CCN1C(=O)/C=C\n1cnc(-c2cc(C(F)(F)F)cc(C(F)(F)F)c2)n1 [Compound 71, (Z)-1-(3-(3-(3,5-bis(trifluoromethyl)phenyl)-1H-1,2,4-triazol-1-yl)acryloyl)-2-(2-methoxyethyl)pyrazolidin-3-one]	< 1000	0.586	0.245	147 (≈ 307 µM)	229 (≈ 479 µM)	–	–	–	–	–	–	–	–	–	–	–	–	–	–	–
O=C(/C=C\n1cnc(-c2cc(C(F)(F)F)cc(C(F)(F)F)c2)n1)N1CCC(=O)N1CC1CC1 [Compound 72, (Z)-1-(3-(3-(3,5-bis(trifluoromethyl)phenyl)-1H-1,2,4-triazol-1-yl)acryloyl)-2-(cyclopropylmethyl)pyrazolidin-3-one]	< 1000	0.137	0.119	27.4 (≈ 58 µM)	20.9 (≈ 44.2 µM)	–	–	–	–	–	–	–	–	–	–	–	–	–	–	–
COC1=CC(=O)N(NC(=O)/C=C\n2cnc(-c3cc(C(F)(F)F)cc(C(F)(F)F)c3)n2)CC1 [Compound 87, (Z)-3-(3-(3,5-bis(trifluoromethyl)phenyl)-1H-1,2,4-triazol-1-yl)-N-(4-methoxy-6-oxo-3,6-dihydropyridin-1(2H)-yl)acrylamide]	< 1000	0.041	0.021	–	–	4080	389	6.56	0.5	2.7	–	–	–	–	–	–	–	0.041	20	0.021
O=C(/C=C\n1cnc(-c2cc(C(F)(F)F)cc(C(F)(F)F)c2)n1)N1CCCN1 [Compound 90, (Z)-3-(3-(3,5-bis(trifluoromethyl)phenyl)-1H-1,2,4-triazol-1-yl)-1-(pyrazolidin-1-yl)prop-2-en-1-one]	–	–	–	349 (≈ 861 µM)	156 (≈ 386 µM)	–	–	–	–	–	–	–	–	–	–	–	–	–	–	–
O=C(/C=C\n1cnc(-c2cc(C(F)(F)F)cc(C(F)(F)F)c2)n1)NNc1cnccn1 [KPT-330, Selinexor, reference compound]	–	0.705	0.458	6.52 (≈ 14.7 µM)	6.25 (≈ 14.1 µM)	2470	325	6.94	0.5	2.66	65.06 ± 6.45	19.97	77.55	151.31 ± 23.90	19.97	–	35.02	0.705	–	0.455

— patent US11286247B2, “Acryloyl-containing nuclear transport regulators and uses thereof” (WIGEN BIOMEDICINE TECHNOLOGY (SHANGHAI) CO., LTD., priority 2019, dated 2022)
